Data taken from patent US20110105472A1, “Diaminopyrimidines as crop protection agents” (Bayer CropScience AG, priority 2008, published 2011).

Tested on: not listed separately
Assay: logP by LC-MS, method [b], acidic range pH 2.7
Type: physicochemical
Conditions: pH 2.7

SMILES	log p	chromatographic logP
CS(=O)(=O)Cc1cccc(Nc2ncc(Br)c(NC3CCC3)n2)c1 [Compound 88]	1.66[b]	–
O=C1COCCN1c1ccc(Nc2ncc(Br)c(NC3CCC3)n2)cc1 [Compound 50]	1.53[b]	–
CN1CCN(c2cccc(Nc3ncc(Br)c(NC4CCC4)n3)c2)C1=O [Compound 59]	1.79[b]	–
O=C(O)c1ccc(Nc2ncc(Br)c(NC3CCC3)n2)cc1 [Compound 156]	1.94[b]	–
N#CCC(=O)c1ccc(Nc2ncc(Br)c(NC3CCC3)n2)cc1 [Compound 149]	2.57[b]	–
CSc1cccc(Nc2ncc(Cl)c(NC3CCC3)n2)c1 [Compound 128]	2.46[b]	–
CC(=O)N(C)c1ccc(Nc2ncc(Cl)c(NC3CCC3)n2)cc1 [Compound 120]	1.64[b]	–
O=C1CCCN1c1cccc(Nc2ncc(Br)c(NC3CCC3)n2)c1 [Compound 45]	1.84[b]	–
CSc1ccc(Nc2ncc(Cl)c(NC3CCC3)n2)cc1 [Compound 129]	2.33[b]	–
CN(C)C(=O)c1ccc(Nc2ncc(Br)c(NC3CCC3)n2)cc1 [Compound 100]	1.73[b]	–
CCOC(=O)Cc1ccc(Nc2ncc(Br)c(NC3CCC3)n2)cc1 [Compound 148]	2.3[b]	–
CC(=O)Nc1cc(Nc2ncc(Cl)c(NC3CCC3)n2)ccc1C [Compound 142]	1.38[b]	–
COc1cc(Nc2ncc(Br)c(NC3CCC3)n2)cc(OC)c1OC [Compound 38]	2.04[b]	–
CC(=O)Nc1cccc(Nc2ncc(Br)c(NC3CCC3)n2)c1 [Compound 96]	1.54[b]	–
CC1(Nc2nc(Nc3ccccc3)ncc2Cl)CCC1 [Compound 52, 5-Chloro-N^4-(1-methylcyclobutyl)-N^2-phenylpyrimidine-2,4-diamine]	–	2.1
O=c1[nH]c2ccc(Nc3ncc(Br)c(NC4CCC4)n3)cc2o1 [Compound 5]	1.59[b]	–
CN(C)C(=O)c1cccc(Nc2ncc(Br)c(NC3CCC3)n2)c1 [Compound 155]	1.68[b]	–
CSc1cccc(Nc2ncc(Br)c(NC3CCC3)n2)c1 [Compound 44]	2.92[b]	–

Tested on: Stellaria media (common chickweed)
Assay: Herbicidal post-emergence action (PO), STEME
Type: in vivo
Conditions: dose 1000 g/ha, rated visually after about 2 weeks
Experimental: (§1) 2. Herbicidal Post-Emergence Action (═PO)
(§2) Seeds of monocotyledonous and dicotyledonous harmful plants are placed in sandy loam, covered with soil and cultivated in a greenhouse under good growth conditions. About 2 weeks after sowing, the test plants are treated at the one-leaf stage. To this end, the compounds according to the invention, formulated as emulsion concentrates (EC), as an aqueous emulsion with a water application rate of 800 l/ha (converted), are sprayed onto the green parts of the plants. After the test plants have been kept in the greenhouse under optimum growth conditions for about 2 weeks, the effect of the preparations is rated visually in comparison to untreated controls (herbicidal effect in percent (%): 100% effect=the plants have died, 0% effect=like control plants). CAPBP=Capsella bursa-pastoris (shepherd's purse), STEME=Stellaria media (common chickweed), ABUTH=Abutilon theophrasti (velvetleaf), AMARE=Amaranthus retroflexus (redroot pigweed)

SMILES	herbicidal effect STEME [%]
CS(=O)(=O)Cc1cccc(Nc2ncc(Br)c(NC3CCC3)n2)c1 [Compound 88]	80
O=C1COCCN1c1ccc(Nc2ncc(Br)c(NC3CCC3)n2)cc1 [Compound 50]	80
CN1CCN(c2cccc(Nc3ncc(Br)c(NC4CCC4)n3)c2)C1=O [Compound 59]	80
N#CCC(=O)c1ccc(Nc2ncc(Br)c(NC3CCC3)n2)cc1 [Compound 149]	70
CSc1cccc(Nc2ncc(Cl)c(NC3CCC3)n2)c1 [Compound 128]	90
O=C1CCCN1c1cccc(Nc2ncc(Br)c(NC3CCC3)n2)c1 [Compound 45]	80
CSc1ccc(Nc2ncc(Cl)c(NC3CCC3)n2)cc1 [Compound 129]	70
CN(C)C(=O)c1ccc(Nc2ncc(Br)c(NC3CCC3)n2)cc1 [Compound 100]	70
CCOC(=O)Cc1ccc(Nc2ncc(Br)c(NC3CCC3)n2)cc1 [Compound 148]	70
CC(=O)Nc1cccc(Nc2ncc(Br)c(NC3CCC3)n2)c1 [Compound 96]	70
O=c1[nH]c2ccc(Nc3ncc(Br)c(NC4CCC4)n3)cc2o1 [Compound 5]	70
CN(C)C(=O)c1cccc(Nc2ncc(Br)c(NC3CCC3)n2)c1 [Compound 155]	80
CSc1cccc(Nc2ncc(Br)c(NC3CCC3)n2)c1 [Compound 44]	70

Tested on: Capsella bursa-pastoris (shepherd's purse)
Assay: Herbicidal pre-emergence action (PE), CAPBP
Type: in vivo
Conditions: dose 1000 g/ha, visual assessment after 2 weeks
Description: (§3) 1. Herbicidal Pre-Emergence Action (═Pe)
(§4) Seeds of monocotyledonous and dicotyledonous harmful plants are placed in sandy loam and covered with soil. The compounds according to the invention, formulated as emulsion concentrates (EC), are then, as an aqueous emulsion with a water application rate of 800 l/ha (converted), applied to the surface of the covering soil.
(§5) After the treatment, the pots are placed in a greenhouse and kept under good growth conditions for the test plants. The visual assessment of the damage on the test plants is carried out after a trial period of 2 weeks by comparison with untreated controls (herbicidal effect in percent (%): 100% effect=the plants have died, 0% effect=like control plants). CAPBP=Capsella bursa-pastoris (shepherd's purse), STEME=Stellaria media (common chickweed)

SMILES	herbicidal effect CAPBP [%]
CS(=O)(=O)Cc1cccc(Nc2ncc(Br)c(NC3CCC3)n2)c1 [Compound 88]	90
O=C(O)c1ccc(Nc2ncc(Br)c(NC3CCC3)n2)cc1 [Compound 156]	70
CC(=O)Nc1cc(Nc2ncc(Cl)c(NC3CCC3)n2)ccc1C [Compound 142]	80

Tested on: Amaranthus retroflexus (redroot pigweed)
Assay: Herbicidal post-emergence action (PO), AMARE
Type: in vivo
Conditions: dose 1000 g/ha, rated visually after about 2 weeks
Experimental: as §1, §2

SMILES	herbicidal effect AMARE [%]
O=C1COCCN1c1ccc(Nc2ncc(Br)c(NC3CCC3)n2)cc1 [Compound 50]	70
N#CCC(=O)c1ccc(Nc2ncc(Br)c(NC3CCC3)n2)cc1 [Compound 149]	90
CSc1cccc(Nc2ncc(Cl)c(NC3CCC3)n2)c1 [Compound 128]	90
CC(=O)N(C)c1ccc(Nc2ncc(Cl)c(NC3CCC3)n2)cc1 [Compound 120]	90
O=C1CCCN1c1cccc(Nc2ncc(Br)c(NC3CCC3)n2)c1 [Compound 45]	70
CN(C)C(=O)c1ccc(Nc2ncc(Br)c(NC3CCC3)n2)cc1 [Compound 100]	70
CCOC(=O)Cc1ccc(Nc2ncc(Br)c(NC3CCC3)n2)cc1 [Compound 148]	90
CC(=O)Nc1cc(Nc2ncc(Cl)c(NC3CCC3)n2)ccc1C [Compound 142]	80
COc1cc(Nc2ncc(Br)c(NC3CCC3)n2)cc(OC)c1OC [Compound 38]	90
CC(=O)Nc1cccc(Nc2ncc(Br)c(NC3CCC3)n2)c1 [Compound 96]	70
CN(C)C(=O)c1cccc(Nc2ncc(Br)c(NC3CCC3)n2)c1 [Compound 155]	70

Tested on: Abutilon theophrasti (velvetleaf)
Assay: Herbicidal post-emergence action (PO), ABUTH
Type: in vivo
Conditions: dose 1000 g/ha, rated visually after about 2 weeks
Experimental: as §1, §2

SMILES	herbicidal effect ABUTH [%]
CN1CCN(c2cccc(Nc3ncc(Br)c(NC4CCC4)n3)c2)C1=O [Compound 59]	80
CCOC(=O)Cc1ccc(Nc2ncc(Br)c(NC3CCC3)n2)cc1 [Compound 148]	70
CC(=O)Nc1cc(Nc2ncc(Cl)c(NC3CCC3)n2)ccc1C [Compound 142]	70
COc1cc(Nc2ncc(Br)c(NC3CCC3)n2)cc(OC)c1OC [Compound 38]	70

Tested on: Capsella bursa-pastoris (shepherd's purse)
Assay: Herbicidal post-emergence action (PO), CAPBP
Type: in vivo
Conditions: dose 1000 g/ha, rated visually after about 2 weeks
Experimental: as §1, §2

SMILES	herbicidal effect CAPBP [%]
CS(=O)(=O)Cc1cccc(Nc2ncc(Br)c(NC3CCC3)n2)c1 [Compound 88]	70
CN1CCN(c2cccc(Nc3ncc(Br)c(NC4CCC4)n3)c2)C1=O [Compound 59]	70
N#CCC(=O)c1ccc(Nc2ncc(Br)c(NC3CCC3)n2)cc1 [Compound 149]	90
CSc1cccc(Nc2ncc(Cl)c(NC3CCC3)n2)c1 [Compound 128]	80
CC(=O)N(C)c1ccc(Nc2ncc(Cl)c(NC3CCC3)n2)cc1 [Compound 120]	70
O=C1CCCN1c1cccc(Nc2ncc(Br)c(NC3CCC3)n2)c1 [Compound 45]	70
CSc1ccc(Nc2ncc(Cl)c(NC3CCC3)n2)cc1 [Compound 129]	70
CN(C)C(=O)c1ccc(Nc2ncc(Br)c(NC3CCC3)n2)cc1 [Compound 100]	70
CCOC(=O)Cc1ccc(Nc2ncc(Br)c(NC3CCC3)n2)cc1 [Compound 148]	80
CC(=O)Nc1cccc(Nc2ncc(Br)c(NC3CCC3)n2)c1 [Compound 96]	90
O=c1[nH]c2ccc(Nc3ncc(Br)c(NC4CCC4)n3)cc2o1 [Compound 5]	70
CN(C)C(=O)c1cccc(Nc2ncc(Br)c(NC3CCC3)n2)c1 [Compound 155]	80
CSc1cccc(Nc2ncc(Br)c(NC3CCC3)n2)c1 [Compound 44]	80

Tested on: not listed separately
Assay: logP by HPLC on reversed-phase columns (C 18), method [a], acidic range pH 2.3
Type: physicochemical
Conditions: pH 2.3

SMILES	chromatographic logP
CC1(Nc2nc(Nc3ccccc3)ncc2Cl)CCC1 [Compound 52, 5-Chloro-N^4-(1-methylcyclobutyl)-N^2-phenylpyrimidine-2,4-diamine]	2.1

Tested on: Stellaria media (common chickweed)
Assay: Herbicidal pre-emergence action (PE), STEME
Type: in vivo
Conditions: dose 1000 g/ha, visual assessment after 2 weeks
Description: as §3, §4, §5

SMILES	herbicidal effect STEME [%]
CS(=O)(=O)Cc1cccc(Nc2ncc(Br)c(NC3CCC3)n2)c1 [Compound 88]	80
O=C(O)c1ccc(Nc2ncc(Br)c(NC3CCC3)n2)cc1 [Compound 156]	70
CC(=O)Nc1cc(Nc2ncc(Cl)c(NC3CCC3)n2)ccc1C [Compound 142]	70
